Test results from PubChem BioAssay (NCI).
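Protocol summary: plate cells (96-well), add compound at 5 concentrations, incubate 48 h, interpolate endpoints linearly. TGI is the concentration that stops growth completely.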

Legend:
Assay in all cases: NCI anticancer screen, dose series, 48 h
[1] = test system: SK-MEL-28 melanoma
[2] = test system: HOP-92 NSCLC
[3] = test system: NCI-H460 lung
[4] = test system: RXF 393 renal
[5] = test system: 786-0 renal
[6] = test system: SK-MEL-2 melanoma
[7] = test system: BT-549 breast
[8] = test system: SK-MEL-5 melanoma
[9] = test system: HS 578T breast
[10] = test system: OVCAR-5 ovarian
[11] = test system: HCC-2998 colon
[12] = test system: SF-268 CNS
[13] = test system: MDA-N
[14] = test system: U251 CNS
[15] = test system: HCT-116 colon
[16] = test system: M14 melanoma
[17] = test system: OVCAR-3 ovarian
[18] = test system: CCRF-CEM leukemia
[19] = test system: MALME-3M melanoma
[20] = test system: K-562 leukemia
[21] = test system: HT29 colon
[22] = test system: TK-10 renal
[23] = test system: PC-3 prostate
[24] = test system: HL-60(TB) leukemia
[25] = test system: SN12C renal
[26] = test system: SK-OV-3 ovarian
[27] = test system: ACHN renal
[28] = test system: SNB-19 CNS
[29] = test system: RPMI-8226 leukemia
[30] = test system: UACC-257 melanoma
[31] = test system: COLO 205 colon
[32] = test system: KM12 colon
[33] = test system: OVCAR-4 ovarian
[34] = test system: NCI-H226 lung
[35] = test system: CAKI-1 renal
[36] = test system: SF-539 CNS
[37] = test system: NCI/ADR-RES ovarian
[38] = test system: SW-620 colon
[39] = test system: NCI-H522 lung
[40] = test system: SR leukemia
[41] = test system: OVCAR-8 ovarian
[42] = test system: IGROV1 ovarian
[43] = test system: A549 NSCLC
[44] = test system: SNB-75 CNS
[45] = test system: UO-31 renal
[46] = test system: LOX IMVI melanoma
[47] = test system: DU-145 prostate
[48] = test system: MDA-MB-435
[49] = test system: A498 renal
[50] = test system: EKVX NSCLC
[51] = test system: UACC-62 melanoma
[52] = test system: NCI-H23 lung
[53] = test system: HCT-15 colon
[54] = test system: MDA-MB-231 breast
[55] = test system: SF-295 CNS
[56] = test system: MOLT-4 leukemia
[57] = test system: T-47D breast
[58] = test system: MCF7 breast
[59] = test system: HOP-62 NSCLC
[60] = test system: KM20L2 colon
[61] = test system: DMS 114 small cell lung
[62] = test system: DLD-1 colon
[63] = test system: M19-MEL melanoma

In the case of CCOC(=O)C1C(=O)CC(O)(c2ccccc2)C(C(=O)OCC)C1c1ccc(N(C)C)cc1 (centres undefined), the TGI [1] is reported as > 100 µM, the TGI [2] is reported as > 81.7 µM and the TGI [3] is reported as > 83.8 µM. The TGI [4] was 44.4 µM, the TGI [5] was > 100 µM and the TGI [6] was > 94 µM. For the same molecule, the TGI [7] was > 100 µM, the TGI [8] was 72.3 µM and the TGI [9] was 23.1 µM. The TGI [10] was > 100 µM, the TGI [11] was > 100 µM and the TGI [12] was > 93.5 µM. The TGI [13] was 33.7 µM, the TGI [14] was > 81.2 µM and the TGI [15] was > 100 µM. For the same molecule, the TGI [16] was > 100 µM, the TGI [17] was > 75.1 µM and the TGI [18] was > 65.1 µM. The TGI [19] was > 85.6 µM, the TGI [20] was > 100 µM and the TGI [21] was > 58.5 µM. The TGI [22] was > 100 µM, the TGI [23] was > 100 µM and the TGI [24] was 40 µM. The TGI [25] was > 100 µM, the TGI [26] was 52 µM and the TGI [27] was > 100 µM. The TGI [28] was > 79.9 µM, the TGI [29] was 37.4 µM and the TGI [30] was > 100 µM. The TGI [31] was 53.5 µM, the TGI [32] was > 100 µM and the TGI [33] was > 100 µM. For the same molecule, the TGI [34] was > 100 µM, the TGI [35] was > 100 µM and the TGI [36] was 37 µM. For the same molecule, the TGI [37] was > 78.2 µM, the TGI [38] was > 100 µM and the TGI [39] was 30.7 µM. For the same molecule, the TGI [40] was 49.1 µM, the TGI [41] was > 65.9 µM and the TGI [42] was > 100 µM. For the same molecule, the TGI [43] was > 100 µM, the TGI [44] was 64.9 µM and the TGI [45] was > 100 µM. The TGI [46] was > 100 µM, the TGI [47] was > 100 µM and the TGI [48] was 25.9 µM. For the same molecule, the TGI [49] was > 100 µM, the TGI [50] was > 100 µM and the TGI [51] was > 100 µM. For the same molecule, the TGI [52] was > 93.9 µM, the TGI [53] was > 100 µM and the TGI [54] was > 77.1 µM. For the same molecule, the TGI [55] was 29.8 µM, the TGI [56] was > 84.1 µM and the TGI [57] was > 92.5 µM. The TGI [58] was > 100 µM and the TGI [59] was > 88.8 µM.

With C[N+](C)(C)CC(=O)N/N=C(/Cc1nc2ccc(Cl)cc2[nH]c1=O)C1=NS(=O)(=O)c2cc(S(N)(=O)=O)c(Cl)cc2N1 the TGI [1] was > 100 µM, the TGI [3] was > 100 µM and the TGI [4] was > 100 µM. The TGI [5] was > 100 µM, the TGI [6] was > 100 µM and the TGI [8] was > 100 µM. For the same molecule, the TGI [10] was > 100 µM, the TGI [11] was > 100 µM and the TGI [60] was > 100 µM. The TGI [12] was > 100 µM, the TGI [15] was > 100 µM and the TGI [17] was > 100 µM. For the same molecule, the TGI [18] was > 100 µM, the TGI [19] was > 100 µM and the TGI [20] was > 100 µM. For the same molecule, the TGI [21] was > 100 µM, the TGI [22] was > 100 µM and the TGI [24] was > 100 µM. The TGI [25] was > 100 µM, the TGI [26] was > 100 µM and the TGI [27] was > 100 µM. For the same molecule, the TGI [28] was > 100 µM, the TGI [29] was > 100 µM and the TGI [30] was > 100 µM. The TGI [31] was > 100 µM, the TGI [32] was > 100 µM and the TGI [33] was > 100 µM. For the same molecule, the TGI [36] was > 100 µM, the TGI [61] was > 100 µM and the TGI [62] was > 100 µM. For the same molecule, the TGI [38] was > 100 µM, the TGI [39] was > 100 µM and the TGI [40] was > 100 µM. For the same molecule, the TGI [41] was > 100 µM, the TGI [42] was > 100 µM and the TGI [43] was > 100 µM. For the same molecule, the TGI [63] was > 100 µM, the TGI [45] was > 100 µM and the TGI [49] was > 100 µM. The TGI [50] was > 100 µM, the TGI [51] was > 100 µM and the TGI [52] was > 100 µM. For the same molecule, the TGI [55] was > 100 µM, the TGI [56] was > 100 µM and the TGI [59] was > 100 µM.
